In one series the test system is HT29PAR cells. Description: MDR reversal analysis with MTT assay, HT29PAR. The note with it: Homo sapiens, 72 h drug exposure, read-out: IC50 Value for Each Cell Line: HT29PAR. The class given is cell-based. The method, then: (§1) Control conditions consisted of full growth medium. All treatments were performed in triplicate.
A general note: Tetrazolium assays rely on reduction of a dye to a coloured formazan, in cell work by metabolically active cells.

For another series, the system named is MDCK-II-WT cells. Put plainly: MDR reversal analysis with MTT assay, MDCK-II-WT. Type of series: cell-based, canine. The note with it: Canis lupus familiaris, 72 h drug exposure, read-out: IC50 Value for Each Cell Line: MDCK-II-WT.
For another series, the target named is CYP2C8 (Homo sapiens, UniProt P10632). The settings on record: both, 10 min, pH 7.4.
The nature of series [1]: Apparent permeability across Caco-2 cell monolayers. The note with it: human, Caco-2, pH 7.4.
Protocol: Bidirectional transport experiments with [3H]-estrone-3-sulfate were completed with monolayers of Caco-2 cells from the American Type Culture Collection (ATCC) cultured on Transwell permeable supports for 27 days in Dulbecco’s modified Eagle’s medium, supplemented with 10% FBS, 10 μL·mL^−1 nonessential amino acids (×100), and 100 U·mL^−1 to 100 μg·mL^−1 penicillin-streptomycin solution. The transepithelial electrical resistance was measured across Caco-2 cell monolayers with an Endohm 12-cup electrode chamber (World Precision Instruments Inc., Sarasota, FL, USA) connected volt meter (EVOM, World Precision Instruments Inc., Sarasota, FL, USA) to ensure that cell monolayers were electrically tight before initiating transport experiments. Cell monolayers were allowed to equilibrate to room temperature before the resistance was measured. Prior to initiating the transport experiments, the cell monolayers were pre-incubated in transport buffer (HBSS supplemented with 10 mM HEPES, pH 7.4, and 0.05 % BSA) for 30 min. […] For transport experiments in the apical to basolateral direction, samples of 100 µL were taken from the basoteral compartment (volume 1 mL) at t = 15, 30, 45, 60, 90, and 120 min. From transport experiments in the basolateral to apical direction, samples of 50 µL were taken from the apical compartment (volume 0.5 mL) at the same time points. The withdrawn sample volume from the acceptor compartments were immediately replaced with an equal volume of blank transport buffer. The withdrawn samples were pipetted into scintillation vials and mixed with 2 mL of scintillation fluid. […] Transport of mannitol was measured to validate the barrier integrity of the Caco-2 cell monolayers.
Data treatment: The accumulated amount of compound (Qt, nmol) appearing in the donor compartment was plotted against time. The steady-state flux of compound was calculated as the slope of the linear part of this plot, thus correcting for lag-time effects. The apparent permeability was subsequently calculated with Equation (1):(1) P=J/C_0=Q_t/(C0*A_t) where J represents the steady state flux (nmol·cm^−2·min^−1), C0 represents the initial concentration in the donor compartment, At denotes the area of the permeable support (1.12 cm^2), and Qt is the accumulated amount of compound (nmol) in the receiver compartment at time t (min).
The ratio between apparent permeability in the basolateral to apical direction and the apparent permeability in the opposite direction (efflux ratio = PB−A/PA−B ) was used as a measure of active efflux transport.
Series [2] concerns the target T1, CYP2B6 (Homo sapiens, UniProt P20813). The settings on record: both, 10 min, pH 7.4.
The target in series [3] is T1, CYP2B6. Put plainly: biochemical.
The conditions of series [4]: cited from earlier work.
A further series relates to HT29SN-38-RES cells. Put plainly: MDR reversal analysis with MTT assay, HT29SN-38-RES. The class given is cell-based, human. The settings on record: 72 hours, oxaliplatin is not a substrate for BCRP. The method, then:
as §1

Another series addresses T2, OAT3 (Homo sapiens, UniProt Q8TCC7).
T2 construct: expressed in transfected cells; host or cells: CHO
Put plainly: Fluorometric transporter inhibition, OAT3-CHO. Type of series: in vitro ADME. The note with it: CF substrate. The method, then:
(§2) Cells were seeded in a 96-well plate (20,000 cells/well) and used on days 2 or 3 post-seeding. […] Subsequently, substrate was added to the plate followed by 20 min incubation at 37 °C. The plate was then washed with cold assay buffer followed by fluorescence reading on a plate reader. The tested transporters, cell lines, substrates, and reference inhibitors are shown in the Supplementary Materials (Tables S1 and S2).
(§3) 110 Table S1. […]
OAT3 (h) inhibition (OAT3-CHO, CF substrate) […]
(§4) The IC50 values are shown for the analysed transporters with […]

Series [5] addresses T3, BCRP (Homo sapiens, UniProt Q9UNQ0).
T3 sequence (Q9UNQ0 1-655): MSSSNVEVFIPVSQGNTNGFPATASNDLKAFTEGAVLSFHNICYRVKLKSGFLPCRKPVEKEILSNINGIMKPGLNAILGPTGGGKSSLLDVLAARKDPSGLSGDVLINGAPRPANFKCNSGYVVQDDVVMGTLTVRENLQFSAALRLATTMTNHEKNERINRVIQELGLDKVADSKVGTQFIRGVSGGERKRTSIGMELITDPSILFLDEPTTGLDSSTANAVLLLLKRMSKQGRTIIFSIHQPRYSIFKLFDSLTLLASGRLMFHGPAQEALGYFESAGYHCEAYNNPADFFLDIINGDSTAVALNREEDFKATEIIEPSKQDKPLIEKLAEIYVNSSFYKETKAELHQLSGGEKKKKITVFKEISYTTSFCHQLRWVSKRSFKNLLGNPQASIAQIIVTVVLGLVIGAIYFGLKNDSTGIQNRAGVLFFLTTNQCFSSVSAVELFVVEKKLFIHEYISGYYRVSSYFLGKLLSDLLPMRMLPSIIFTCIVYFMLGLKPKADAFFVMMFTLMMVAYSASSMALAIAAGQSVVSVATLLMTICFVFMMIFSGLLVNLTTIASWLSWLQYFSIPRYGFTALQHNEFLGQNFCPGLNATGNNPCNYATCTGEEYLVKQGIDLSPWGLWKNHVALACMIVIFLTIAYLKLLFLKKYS
Put plainly: Cellular dye efflux assay (Hoechst 33342) in HT29SN-38-RES cells. Type of series: cell-based. Also noted: endogenous in cells; host or cells: HT29 SN-38-RES (drug-selected HT29). The note with it: fluorescence microscopy and imaging cytometry.
Protocol: HT29 cells were seeded either into a 96-well Nunclon plate (Thermo Fisher Scientific, Roskilde, Denmark) at a density of 6000 cells/well (for Celigo Imaging Cytometry) or into a Nunc 6-well plate at a density of 150,000 cells/well (for fluorescence microscopy). […] Then, the cells were washed with ice-cold PBS to remove excess Hoechst dye. Drugs were added again and the cells were incubated for 1h at 37 °C. The plates were analyzed with either fluorescence microscopy (6-well plates) or imaging cytometry (96-well plates). For the Celigo Imaging Cytometry (Lawrence, MA, USA), the application “Target 1 + 2 (merge)” was used, and the mean fluorescence intensities were measured and data presented as percentage of parental control.

Series [6] addresses T3, BCRP. Put plainly: […] ATPase assay with recombinant BCRP membranes. The class given is biochemical. Details: purchased Solvo Biotechnology (via Sigma-Aldrich/Merck) SB-BCRP-M. The note with it: sulfasalazine alone; basal activity 50.68. The method, then: After incubation with test compounds, MgATP was added to each well and incubated at 37 °C for 10 min. The ATPase reaction was stopped by the addition of 1x Developer solution at room temperature (RT). Two minutes after, 100 µL Blocker solution was added and the plate was incubated for 30 min at 37 °C for 30 min. The optical densities were measured at 620 nm using a PowerWave X Microplate spectrophotometer (BioTek, Bad Friedrichshall, Germany).

A further series addresses CYP2C19 (Homo sapiens, UniProt P33261). Description: CYP inhibition, CYP2C19. The settings on record: HLM, omeprazole substrate.
In a further series the target is CYP2D6 (Homo sapiens, UniProt P10635). The settings on record: both, pH 7.4.
Another series concerns the target T4, OATP1B1 (Homo sapiens, UniProt Q9Y6L6).
T4 construct: expressed in transfected cells; host or cells: CHO
Put plainly: Fluorometric transporter inhibition, OATP1B1-CHO. Type of series: in vitro ADME. The settings on record: FMTX substrate. On the procedure: as §2
110 Table S1. In vitro DMPK analysis of transporter inhibition
OATP1B1 OATP1B1-CHO Fluorescein methotrexate Rifampicin […]
OATP1B1 (h) inhibition (OATP1B1-CHO, FMTX substrate) […]
as §4

Another series has as its target T5, OATP1B3 (Homo sapiens, UniProt Q9NPD5).
T5 construct: expressed in transfected cells; host or cells: CHO
Put plainly: Fluorometric transporter inhibition, OATP1B3-CHO. Type of series: in vitro ADME. The note with it: FMTX substrate. The method, then:
as §2, §3
OATP1B3 OATP1B3-CHO Fluorescein methotrexate Rifampicin […]
OATP1B3 (h) inhibition (OATP1B3 -CHO, FMTX substrate) […]
as §4

SMILES strings stand for the structures.

T5 sequence (Q9NPD5 whole entry): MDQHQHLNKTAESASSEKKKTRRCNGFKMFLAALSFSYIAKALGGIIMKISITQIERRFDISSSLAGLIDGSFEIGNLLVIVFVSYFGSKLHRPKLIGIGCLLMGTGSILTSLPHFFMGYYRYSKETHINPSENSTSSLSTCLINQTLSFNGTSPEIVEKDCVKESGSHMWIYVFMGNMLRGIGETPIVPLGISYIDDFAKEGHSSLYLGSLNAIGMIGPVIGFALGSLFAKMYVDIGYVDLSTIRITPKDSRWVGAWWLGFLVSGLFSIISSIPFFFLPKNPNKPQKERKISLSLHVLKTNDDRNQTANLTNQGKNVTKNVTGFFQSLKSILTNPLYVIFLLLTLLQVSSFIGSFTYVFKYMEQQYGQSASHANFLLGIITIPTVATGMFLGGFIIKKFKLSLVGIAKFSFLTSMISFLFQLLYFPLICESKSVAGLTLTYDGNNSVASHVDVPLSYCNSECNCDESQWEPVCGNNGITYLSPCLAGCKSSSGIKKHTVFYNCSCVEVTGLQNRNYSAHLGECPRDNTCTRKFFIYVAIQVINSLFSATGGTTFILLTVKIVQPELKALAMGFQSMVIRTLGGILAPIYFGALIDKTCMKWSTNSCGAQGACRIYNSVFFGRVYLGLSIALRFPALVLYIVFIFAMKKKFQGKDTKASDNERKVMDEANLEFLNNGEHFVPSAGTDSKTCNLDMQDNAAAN
T4 sequence (Q9Y6L6 whole entry): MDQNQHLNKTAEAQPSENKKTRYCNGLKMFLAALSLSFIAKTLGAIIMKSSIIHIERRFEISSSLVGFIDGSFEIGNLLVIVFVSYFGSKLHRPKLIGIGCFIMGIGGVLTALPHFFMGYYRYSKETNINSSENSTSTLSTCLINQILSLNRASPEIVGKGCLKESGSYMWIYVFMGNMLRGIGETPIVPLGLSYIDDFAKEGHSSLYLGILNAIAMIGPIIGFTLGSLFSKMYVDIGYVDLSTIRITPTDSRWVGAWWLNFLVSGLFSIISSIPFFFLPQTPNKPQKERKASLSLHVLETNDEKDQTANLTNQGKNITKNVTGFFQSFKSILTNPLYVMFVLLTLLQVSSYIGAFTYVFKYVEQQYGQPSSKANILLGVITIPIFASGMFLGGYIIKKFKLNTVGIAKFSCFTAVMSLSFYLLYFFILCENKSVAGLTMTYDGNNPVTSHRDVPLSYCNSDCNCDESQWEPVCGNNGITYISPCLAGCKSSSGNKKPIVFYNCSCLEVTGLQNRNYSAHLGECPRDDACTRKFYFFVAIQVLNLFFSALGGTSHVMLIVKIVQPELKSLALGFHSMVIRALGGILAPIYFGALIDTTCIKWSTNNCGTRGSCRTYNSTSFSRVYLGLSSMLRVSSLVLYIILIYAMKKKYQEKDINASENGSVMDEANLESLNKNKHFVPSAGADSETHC
T1 sequence (P20813 whole entry): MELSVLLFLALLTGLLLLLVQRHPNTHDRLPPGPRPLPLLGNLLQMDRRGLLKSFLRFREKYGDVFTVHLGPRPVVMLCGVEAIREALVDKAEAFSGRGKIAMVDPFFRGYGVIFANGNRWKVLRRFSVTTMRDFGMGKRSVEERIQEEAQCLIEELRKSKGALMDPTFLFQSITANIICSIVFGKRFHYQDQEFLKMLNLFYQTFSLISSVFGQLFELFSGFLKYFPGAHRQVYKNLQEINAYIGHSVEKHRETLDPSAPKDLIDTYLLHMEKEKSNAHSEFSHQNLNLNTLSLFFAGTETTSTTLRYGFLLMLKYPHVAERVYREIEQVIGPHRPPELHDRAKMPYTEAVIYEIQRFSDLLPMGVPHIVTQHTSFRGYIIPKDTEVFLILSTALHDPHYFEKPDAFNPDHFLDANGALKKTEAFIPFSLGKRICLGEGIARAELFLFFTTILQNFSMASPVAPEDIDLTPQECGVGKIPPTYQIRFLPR
Sequence of CYP2D6 (P10635 whole entry): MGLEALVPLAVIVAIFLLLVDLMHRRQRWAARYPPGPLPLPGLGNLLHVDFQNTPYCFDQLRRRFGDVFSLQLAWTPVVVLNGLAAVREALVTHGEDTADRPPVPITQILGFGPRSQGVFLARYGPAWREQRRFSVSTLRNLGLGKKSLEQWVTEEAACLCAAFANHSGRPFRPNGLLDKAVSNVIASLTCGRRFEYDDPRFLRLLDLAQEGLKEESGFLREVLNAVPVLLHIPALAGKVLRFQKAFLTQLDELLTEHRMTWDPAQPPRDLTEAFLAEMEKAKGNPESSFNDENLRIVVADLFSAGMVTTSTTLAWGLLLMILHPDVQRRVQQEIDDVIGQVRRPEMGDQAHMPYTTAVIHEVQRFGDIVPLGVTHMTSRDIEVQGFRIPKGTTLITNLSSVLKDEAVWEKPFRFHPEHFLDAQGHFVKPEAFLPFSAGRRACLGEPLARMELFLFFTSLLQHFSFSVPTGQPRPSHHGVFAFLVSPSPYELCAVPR
Sequence of CYP2C8 (P10632 whole entry): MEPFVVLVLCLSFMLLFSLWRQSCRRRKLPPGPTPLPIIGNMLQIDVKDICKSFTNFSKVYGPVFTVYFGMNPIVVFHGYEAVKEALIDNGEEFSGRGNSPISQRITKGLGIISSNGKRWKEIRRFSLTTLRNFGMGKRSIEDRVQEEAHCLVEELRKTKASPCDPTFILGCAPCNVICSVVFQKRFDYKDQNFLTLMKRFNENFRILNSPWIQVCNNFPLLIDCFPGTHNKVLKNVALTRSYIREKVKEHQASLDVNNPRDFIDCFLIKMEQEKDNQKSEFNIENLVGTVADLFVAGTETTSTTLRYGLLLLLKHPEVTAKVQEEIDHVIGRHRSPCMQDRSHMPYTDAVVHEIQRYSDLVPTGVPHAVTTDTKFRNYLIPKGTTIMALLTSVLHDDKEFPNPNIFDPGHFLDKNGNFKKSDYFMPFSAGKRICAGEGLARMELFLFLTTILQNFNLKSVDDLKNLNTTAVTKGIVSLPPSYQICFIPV
T2 sequence (Q8TCC7 whole entry): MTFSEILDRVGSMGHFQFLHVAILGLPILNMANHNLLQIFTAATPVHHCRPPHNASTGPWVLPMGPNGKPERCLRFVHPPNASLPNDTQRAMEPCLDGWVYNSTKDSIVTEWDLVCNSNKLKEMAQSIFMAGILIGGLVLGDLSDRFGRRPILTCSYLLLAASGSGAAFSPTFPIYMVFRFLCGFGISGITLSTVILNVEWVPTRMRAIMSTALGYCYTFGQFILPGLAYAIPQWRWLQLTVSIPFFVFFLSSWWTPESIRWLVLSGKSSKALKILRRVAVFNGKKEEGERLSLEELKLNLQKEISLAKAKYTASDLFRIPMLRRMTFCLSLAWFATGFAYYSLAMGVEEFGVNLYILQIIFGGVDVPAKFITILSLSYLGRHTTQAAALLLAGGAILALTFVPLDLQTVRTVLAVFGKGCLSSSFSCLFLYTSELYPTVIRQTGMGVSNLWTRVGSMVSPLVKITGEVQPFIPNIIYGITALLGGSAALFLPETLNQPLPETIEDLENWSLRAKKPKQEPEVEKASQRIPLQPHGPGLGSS
Sequence of CYP2C19 (P33261 whole entry): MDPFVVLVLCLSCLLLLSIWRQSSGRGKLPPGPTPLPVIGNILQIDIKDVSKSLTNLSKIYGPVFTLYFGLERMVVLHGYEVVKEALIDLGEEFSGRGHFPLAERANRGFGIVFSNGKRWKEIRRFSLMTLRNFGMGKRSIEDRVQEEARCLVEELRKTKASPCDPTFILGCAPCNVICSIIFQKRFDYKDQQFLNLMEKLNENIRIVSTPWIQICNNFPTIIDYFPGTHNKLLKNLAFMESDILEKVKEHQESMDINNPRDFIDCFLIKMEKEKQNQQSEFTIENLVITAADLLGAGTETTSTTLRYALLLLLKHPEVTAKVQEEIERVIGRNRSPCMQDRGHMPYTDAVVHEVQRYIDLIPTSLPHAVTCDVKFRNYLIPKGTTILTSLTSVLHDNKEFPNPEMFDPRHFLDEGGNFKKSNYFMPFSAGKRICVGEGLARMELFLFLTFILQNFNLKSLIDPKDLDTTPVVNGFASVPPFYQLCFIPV
Protocol for MDCK-II-WT cells: Cells were seeded in Nunc 96-well plates (2000 or 8000 cells/well for the MDCK-II and HT29 cells, respectively). Following cell attachment (12–24 h), drugs were added to a total volume of 200 µL. Control conditions consisted of full growth medium. All treatments were performed in triplicate. Following 72 h of drug exposure, MTT reagent was added for either 1 h (MDCK-II) or 3 h (HT29). For cell lysis and solubilization of the formazan crystals, DMSO was added to the MDCK-II cells, whereas acidified (0.02 M HCl) sodium dodecyl sulphate was added to the HT29 cells. […] Background optical density values were subtracted, and the average optical densities were calculated. Cell viability was calculated as percentage of untreated control cells. The mean IC50 values were determined using GraphPad Prism (version 6.0, San Diego, CA, USA).

For the molecule `CC[C@@]1(O)C(=O)OCc2c1cc1n(c2=O)Cc2cc3c(CN(C)C)c(O)ccc3nc2-1` [Topotecan], in the series on HT29PAR cells, the IC50 was found to be 0.008 ± 0.003 µM. Regarding `O=C1c2c(O)ccc(O)c2C(=O)c2c(NCCNCCO)ccc(NCCNCCO)c21` [Mitoxantrone], in the series with MDCK-II-WT cells, the IC50 turned out to be 0.157 ± 0.023 µM.

The molecule `CC(C)(O)c1ccccc1CC[C@@H](SCC1(CC(=O)O)CC1)c1cccc(/C=C/c2ccc3ccc(Cl)cc3n2)c1` [Montelukast] yielded a nH on CYP2C8 of 0.8. `CCc1c2c(nc3ccc(O)cc13)-c1cc3c(c(=O)n1C2)COC(=O)[C@]3(O)CC` [SN-38, 7-Ethyl-10-hydroxycamptothecin]: in the series with HT29PAR cells, the IC50 worked out at 0.016 ± 0.01 µM. As for `OC[C@@H](O)[C@@H](O)[C@H](O)[C@H](O)CO` [mannitol], in series [1], the Papp at 120 min, 0.8 µCi/mL was determined as 0.21 ×10⁻⁶ cm/s. The molecule `COC(=O)[C@H](c1ccccc1Cl)N1CCc2sccc2C1` [Clopidogrel] returned a nH at CYP2B6 [2] of 1.3. Further, the IC50 on CYP2B6 [3] was 0.74 µM. Turning to `COc1ccc2c3c([nH]c2c1)[C@H](CC(C)C)N1C(=O)[C@H](CCC(=O)OC(C)(C)C)NC(=O)[C@@H]1C3` [Ko143, reference compound], the stability in plasma entry in [4] is “not stable in plasma”. Also, the “combinatorial effect with oxaliplatin on cell viability” value with HT29SN-38-RES cells is “no added effects”. `CCCN(CCC)S(=O)(=O)c1ccc(C(=O)O)cc1` [Probenecid] registered a nH at OAT3 of 0.6.

As to `C/C=C/C[C@@H](C)C(=O)[C@H]1C(=O)N[C@@H](C(C)C)C(=O)N(C)CC(=O)N(C)[C@@H](CC(C)C)C(=O)N[C@@H](C(C)C)C(=O)N(C)[C@@H](CC(C)C)C(=O)N[C@@H](C)C(=O)N[C@H](C)C(=O)N(C)[C@@H](CC(C)C)C(=O)N(C)[C@@H](CC(C)C)C(=O)N(C)[C@@H](C(C)C)C(=O)N1C` [PSC833, reference compound], on BCRP [5], the “Hoechst accumulation in resistant cells” value was “did not have any effects”. For `O=C(O)c1cc(/N=N/c2ccc(S(=O)(=O)Nc3ccccn3)cc2)ccc1O` [Sulfasalazine, reference compound], the “maximal ATPase activity” value at BCRP [6] was 104.8 nmol Pi/mg protein/min. With `CCN(CC)CC#CCOC(=O)C(O)(c1ccccc1)C1CCCCC1` (stereo not drawn) [Oxybutynin], at CYP2C19, the nH is 1.0. Regarding `C[C@]12CC[C@@H]3c4ccc(OS(=O)(=O)O)cc4CC[C@H]3[C@@H]1CCC2=O` [[^3H]-estrone-3-sulfate], in the series with Caco-2 cell monolayers, the “apparent permeability in the efflux direction (basolateral to apical)” value is on record as 2.7 ± 0.2 × 10^−5 cm/second, the “apparent permeability in the opposite direction (apical to basolateral)” value was 2.2 ± 0.01 × 10^−6 cm/second and the “efflux ratio (PB-A/PA-B)” value is reported as 12.2. With `C=C[C@H]1C[N@@]2CC[C@H]1C[C@@H]2[C@@H](O)c1ccnc2ccc(OC)cc12` [Quinidine], the nH on CYP2D6 is recorded as 1.1. For `CO[C@H]1/C=C/O[C@@]2(C)Oc3c(C)c(O)c4c(O)c(c(/C=N/N5CCN(C)CC5)c(O)c4c3C2=O)NC(=O)/C(C)=C\C=C\[C@H](C)[C@H](O)[C@@H](C)[C@@H](O)[C@@H](C)[C@H](OC(C)=O)[C@@H]1C` [Rifampicin], the nH on OATP1B1 amounted to 0.6; at OATP1B3 it was 0.4. The IC50 at OATP1B1 (NC: not calculable) is 2.2 µM; at OATP1B3 (NC: not calculable), 5.4 µM.

Usually IC50 stands for the midpoint of a concentration-inhibition curve. In general, Papp refers to the rate of passage across a membrane or cell layer, normalised by area and donor concentration.

Values taken from article PMC7140522, “The Pyrazolo[3,4-d]pyrimidine Derivative, SCO-201, Reverses Multidrug Resistance Mediated by ABCG2/BCRP” (Cells, 2020).
